Laboratory results: patent US20230085307A1, “PYRIDAZINONE COMPOUND AND HERBICIDE” (NISSAN CHEMICAL CORPORATION, priority 2019, published 2023)

Tests used:
[1] = test system: barnyard grass; assay: Test Example 3: herbicidal effect by foliage application, Wagner pot (Table 18, symbol H); assay type: in vivo, barnyard grass (Echinochloa crus-galli); settings: 320 g/ha
In short: (§1)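 Plants were sown in alluvial soil held under 0.1–0.5 cm standing water and grown 14 days in a greenhouse at 25–30 °C. An emulsifiable formulation, water-diluted to the set dose, was then sprayed onto the foliage, and effects were scored three weeks later using previously defined criteria.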

[2] = test system: Chinese sprangletop; assay: Test Example 3: herbicidal effect by foliage application, Wagner pot (Table 18, symbol D); assay type: in vivo, chinese sprangletop (Leptochloa chinensis); settings: 320 g/ha
In short: as §1

[3] = test system: rice flat sedge; assay: Test Example 3: herbicidal effect by foliage application, Wagner pot (Table 18, symbol E); assay type: in vivo, rice flat sedge (Cyperus iria); settings: 320 g/ha
In short: as §1

[4] = test system: southern crabgrass; assay: Test Example 4: herbicidal effect by soil treatment (Table 19, symbol F); assay type: in vivo, southern crabgrass (Digitaria ciliaris); settings: amount of applied herbicide 320 g/ha
In short: (§2)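 Herbicidal effect was rated 3 weeks after treatment, using the scoring criteria of an earlier test. The compound, formulated as an emulsion and diluted in water to a set herbicide amount, had been sprayed uniformly on soil over freshly sown seeds. Growth took place in a greenhouse at 25° C. to 30° C.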

[5] = test system: green foxtail; assay: Test Example 4: herbicidal effect by soil treatment (Table 19, symbol G); assay type: in vivo, green foxtail (Setaria viridis); settings: amount of applied herbicide 320 g/ha
In short: as §2

[6] = test system: barnyard grass; assay: Test Example 4: herbicidal effect by soil treatment (Table 19, symbol H); assay type: in vivo, barnyard grass (Echinochloa crus-galli); settings: amount of applied herbicide 320 g/ha
In short: as §2

[7] = test system: wild oat; assay: Test Example 4: herbicidal effect by soil treatment (Table 19, symbol I); assay type: in vivo, wild oat (Avena fatua); settings: amount of applied herbicide 320 g/ha
In short: as §2

[8] = test system: blackgrass; assay: Test Example 4: herbicidal effect by soil treatment (Table 19, symbol J); assay type: in vivo, blackgrass (Alopecurus myosuroides); settings: amount of applied herbicide 320 g/ha
In short: as §2

[9] = test system: Italian ryegrass; assay: Test Example 4: herbicidal effect by soil treatment (Table 19, symbol K); assay type: in vivo, Italian ryegrass (Lolium multiflorum); settings: amount of applied herbicide 320 g/ha
In short: as §2

[10] = test system: windgrass; assay: Test Example 4: herbicidal effect by soil treatment (Table 19, symbol L); assay type: in vivo, windgrass (Apera spica-venti); settings: amount of applied herbicide 320 g/ha
In short: as §2

[11] = test system: velvetleaf; assay: Test Example 4: herbicidal effect by soil treatment (Table 19, symbol M); assay type: in vivo, velvetleaf (Abutilon theophrasti); settings: amount of applied herbicide 320 g/ha
In short: as §2

[12] = test system: redroot pigweed; assay: Test Example 4: herbicidal effect by soil treatment (Table 19, symbol N); assay type: in vivo, redroot pigweed (Amaranthus retroflexus); settings: amount of applied herbicide 320 g/ha
In short: as §2

[13] = test system: lambsquarters; assay: Test Example 4: herbicidal effect by soil treatment (Table 19, symbol O); assay type: in vivo, lambsquarters (Chenopodium album); settings: amount of applied herbicide 320 g/ha
In short: as §2

[14] = test system: chickweed; assay: Test Example 4: herbicidal effect by soil treatment (Table 19, symbol P); assay type: in vivo, common chickweed (Stellaria media); settings: amount of applied herbicide 320 g/ha
In short: as §2

[15] = test system: false cleavers; assay: Test Example 4: herbicidal effect by soil treatment (Table 19, symbol Q); assay type: in vivo, false cleavers (Galium spurium); settings: amount of applied herbicide 320 g/ha
In short: as §2

[16] = test system: persian speedwell; assay: Test Example 4: herbicidal effect by soil treatment (Table 19, symbol R); assay type: in vivo, Persian speedwell (Veronica persica); settings: amount of applied herbicide 320 g/ha
In short: as §2

[17] = test system: southern crabgrass; assay: Test Example 5: herbicidal effect by foliage application, plastic box (Table 20, symbol F); assay type: in vivo, southern crabgrass (Digitaria ciliaris); settings: foliage application, 320 g/ha, three weeks after application
In short: (§3)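 Foliar spray test: emulsion formulation diluted in water to a set application rate, sprayed onto 14-day-old plants raised in diluvial soil at 25° C to 30° C under glass. Both herbicidal effect and crop effect rated visually three weeks later.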

[18] = test system: green foxtail; assay: Test Example 5: herbicidal effect by foliage application, plastic box (Table 20, symbol G); assay type: in vivo, green foxtail (Setaria viridis); settings: foliage application, 320 g/ha, three weeks after application
In short: as §3

[19] = test system: barnyard grass; assay: Test Example 5: herbicidal effect by foliage application, plastic box (Table 20, symbol H); assay type: in vivo, barnyard grass (Echinochloa crus-galli); settings: foliage application, 320 g/ha, three weeks after application
In short: as §3

[20] = test system: wild oat; assay: Test Example 5: herbicidal effect by foliage application, plastic box (Table 20, symbol I); assay type: in vivo, wild oat (Avena fatua); settings: foliage application, 320 g/ha, three weeks after application
In short: as §3

[21] = test system: blackgrass; assay: Test Example 5: herbicidal effect by foliage application, plastic box (Table 20, symbol J); assay type: in vivo, blackgrass (Alopecurus myosuroides); settings: foliage application, 320 g/ha, three weeks after application
In short: as §3

[22] = test system: Italian ryegrass; assay: Test Example 5: herbicidal effect by foliage application, plastic box (Table 20, symbol K); assay type: in vivo, Italian ryegrass (Lolium multiflorum); settings: foliage application, 320 g/ha, three weeks after application
In short: as §3

[23] = test system: windgrass; assay: Test Example 5: herbicidal effect by foliage application, plastic box (Table 20, symbol L); assay type: in vivo, windgrass (Apera spica-venti); settings: foliage application, 320 g/ha, three weeks after application
In short: as §3

[24] = test system: velvetleaf; assay: Test Example 5: herbicidal effect by foliage application, plastic box (Table 20, symbol M); assay type: in vivo, velvetleaf (Abutilon theophrasti); settings: foliage application, 320 g/ha, three weeks after application
In short: as §3

[25] = test system: redroot pigweed; assay: Test Example 5: herbicidal effect by foliage application, plastic box (Table 20, symbol N); assay type: in vivo, redroot pigweed (Amaranthus retroflexus); settings: foliage application, 320 g/ha, three weeks after application
In short: as §3

[26] = test system: lambsquarters; assay: Test Example 5: herbicidal effect by foliage application, plastic box (Table 20, symbol O); assay type: in vivo, lambsquarters (Chenopodium album); settings: foliage application, 320 g/ha, three weeks after application
In short: as §3

[27] = test system: chickweed; assay: Test Example 5: herbicidal effect by foliage application, plastic box (Table 20, symbol P); assay type: in vivo, common chickweed (Stellaria media); settings: foliage application, 320 g/ha, three weeks after application
In short: as §3

[28] = test system: false cleavers; assay: Test Example 5: herbicidal effect by foliage application, plastic box (Table 20, symbol Q); assay type: in vivo, false cleavers (Galium spurium); settings: foliage application, 320 g/ha, three weeks after application
In short: as §3

[29] = test system: persian speedwell; assay: Test Example 5: herbicidal effect by foliage application, plastic box (Table 20, symbol R); assay type: in vivo, Persian speedwell (Veronica persica); settings: foliage application, 320 g/ha, three weeks after application
In short: as §3

Compound	herbicidal effect on H (barnyard grass), rating 0-5 [1]	herbicidal effect on D (Chinese sprangletop), rating 0-5 [2]	herbicidal effect on E (rice flat sedge), rating 0-5 [3]	herbicidal effect rating, F: southern crabgrass [4]	herbicidal effect rating, G: green foxtail [5]	herbicidal effect rating, H: barnyard grass [6]	herbicidal effect rating, I: wild oat [7]	herbicidal effect rating, J: blackgrass [8]	herbicidal effect rating, K: Italian ryegrass [9]	herbicidal effect rating, L: windgrass [10]	herbicidal effect rating, M: velvetleaf [11]	herbicidal effect rating, N: redroot pigweed [12]	herbicidal effect rating, O: lambsquarters [13]	herbicidal effect rating, P: chickweed [14]	herbicidal effect rating, Q: false cleavers [15]	herbicidal effect rating, R: persian speedwell [16]	herbicidal effect grade, F: southern crabgrass [17]	herbicidal effect grade, G: green foxtail [18]	herbicidal effect grade, H: barnyard grass [19]	herbicidal effect grade, I: wild oat [20]	also measured
Cc1nn(C)c(=O)c(-c2c(-c3ccc(F)c(F)c3)sc3ccccc23)c1O [1-046]	3 (Herbicidal rate of 40% or more and less than 70%)	0 (Herbicidal rate of 5% or less (almost no effect))	5 (Herbicidal rate of 90% or more (almost completely withered))	0 (Herbicidal rate of 5% or less (almost no effect))	0 (Herbicidal rate of 5% or less (almost no effect))	0 (Herbicidal rate of 5% or less (almost no effect))	0 (Herbicidal rate of 5% or less (almost no effect))	0 (Herbicidal rate of 5% or less (almost no effect))	0 (Herbicidal rate of 5% or less (almost no effect))	0 (Herbicidal rate of 5% or less (almost no effect))	0 (Herbicidal rate of 5% or less (almost no effect))	0 (Herbicidal rate of 5% or less (almost no effect))	0 (Herbicidal rate of 5% or less (almost no effect))	5 (Herbicidal rate of 90% or more (almost completely withered))	5 (Herbicidal rate of 90% or more (almost completely withered))	5 (Herbicidal rate of 90% or more (almost completely withered))	4 (Herbicidal rate of 70% or more and less than 90%)	4 (Herbicidal rate of 70% or more and less than 90%)	4 (Herbicidal rate of 70% or more and less than 90%)	3 (Herbicidal rate of 40% or more and less than 70%)	herbicidal effect grade, J: blackgrass [21]: 0 (Herbicidal rate of 5% or less (almost no effect)); herbicidal effect grade, K: Italian ryegrass [22]: 3 (Herbicidal rate of 40% or more and less than 70%); herbicidal effect grade, L: windgrass [23]: 0 (Herbicidal rate of 5% or less (almost no effect)); herbicidal effect grade, M: velvetleaf [24]: 5 (Herbicidal rate of 90% or more (almost completely withered)); herbicidal effect grade, N: redroot pigweed [25]: 5 (Herbicidal rate of 90% or more (almost completely withered)); herbicidal effect grade, O: lambsquarters [26]: 4 (Herbicidal rate of 70% or more and less than 90%); herbicidal effect grade, P: chickweed [27]: 5 (Herbicidal rate of 90% or more (almost completely withered)); herbicidal effect grade, Q: false cleavers [28]: 5 (Herbicidal rate of 90% or more (almost completely withered)); herbicidal effect grade, R: persian speedwell [29]: 5 (Herbicidal rate of 90% or more (almost completely withered))
COc1cccc(-c2sc3ccccc3c2-c2c(O)c(C)nn(C)c2=O)c1F [1-048]	4 (Herbicidal rate of 70% or more and less than 90%)	5 (Herbicidal rate of 90% or more (almost completely withered))	4 (Herbicidal rate of 70% or more and less than 90%)	0 (Herbicidal rate of 5% or less (almost no effect))	0 (Herbicidal rate of 5% or less (almost no effect))	0 (Herbicidal rate of 5% or less (almost no effect))	0 (Herbicidal rate of 5% or less (almost no effect))	0 (Herbicidal rate of 5% or less (almost no effect))	0 (Herbicidal rate of 5% or less (almost no effect))	0 (Herbicidal rate of 5% or less (almost no effect))	0 (Herbicidal rate of 5% or less (almost no effect))	0 (Herbicidal rate of 5% or less (almost no effect))	0 (Herbicidal rate of 5% or less (almost no effect))	3 (Herbicidal rate of 40% or more and less than 70%)	0 (Herbicidal rate of 5% or less (almost no effect))	1 (Herbicidal rate of 5% or more and less than 20%)	0 (Herbicidal rate of 5% or less (almost no effect))	0 (Herbicidal rate of 5% or less (almost no effect))	0 (Herbicidal rate of 5% or less (almost no effect))	0 (Herbicidal rate of 5% or less (almost no effect))	herbicidal effect grade, J: blackgrass [21]: 0 (Herbicidal rate of 5% or less (almost no effect)); herbicidal effect grade, K: Italian ryegrass [22]: 0 (Herbicidal rate of 5% or less (almost no effect)); herbicidal effect grade, L: windgrass [23]: 0 (Herbicidal rate of 5% or less (almost no effect)); herbicidal effect grade, M: velvetleaf [24]: 0 (Herbicidal rate of 5% or less (almost no effect)); herbicidal effect grade, N: redroot pigweed [25]: 0 (Herbicidal rate of 5% or less (almost no effect)); herbicidal effect grade, O: lambsquarters [26]: 0 (Herbicidal rate of 5% or less (almost no effect)); herbicidal effect grade, P: chickweed [27]: 5 (Herbicidal rate of 90% or more (almost completely withered)); herbicidal effect grade, Q: false cleavers [28]: 0 (Herbicidal rate of 5% or less (almost no effect)); herbicidal effect grade, R: persian speedwell [29]: 4 (Herbicidal rate of 70% or more and less than 90%)
